Laboratory results published in publication PMC6155662, “Trypanocidal Activity of Quinoxaline 1,4 Di-N-oxide Derivatives as Trypanothione Reductase Inhibitors” (Molecules : A Journal of Synthetic Chemistry and Natural …, 2017).
Like-named read-outs stand apart in the source and are kept apart here.

How the values were obtained:
[1] = tested on: T. cruzi bloodstream trypomastigotes INC-5 strain; assay: microbe, parasite or virus in culture; assay type: cell-based; conditions: for CC50: bloodstream trypomastigotes, 24 h at 4 °C (called IC50 in abstract), read-out: LC50 INC-5 Strain
Protocol: (§1) In this study, two strains of T. cruzi isolated in Mexico were used. T. cruzi NINOA strain (MHOM/MX/1994/NINOA) was obtained from a patient with acute Chagas disease and T. cruzi INC-5 (MHOM/MX/1994/INC5) was isolated from a patient in the chronic phase of the disease. Epimastigotes were cultured in vitro in liver infusion-tryptose (LIT) medium supplemented with 10% heat inactivated fetal bovine serum (FBS) (Gibco) and 100 U/mL penicillin-streptomycin (In vitro S.A.), and incubated at 27 °C. CD1 mice, aged 6–8 weeks, were infected with T. cruzi to obtain bloodstream trypomastigote samples. Animal experiments were performed according to Norma Oficial Mexicana (NOM-062-Z00-1999) published on 22 August, 2009.
(§2) CD1 female mice 6–8 weeks old were infected with T. cruzi bloodstream trypomastigotes of the INC-5 and NINOA strains. The course of infection continued for 4–6 weeks. At the peak of parasitemia blood was obtained by cardiac puncture using sodium heparin as an anticoagulant. The blood was adjusted to 1 × 10^6 bloodstream trypomastigotes/mL.
(§3) In each well of the 96-well plate, 195 μL of infected blood and 5 μL of quinoxaline 1,4-di-N-oxide derivatives or reference drug dilutions were seeded, with each well reaching a final volume of 200 µL. Each assay was performed in triplicate. Initially, all compounds were tested at 50 μg/mL. […] As a negative control of lysis, wells with untreated blood trypomastigotes were used, and as a positive control, wells with the reference drugs were used. The microplates were incubated at 4 °C for 24 h. Bloodstream trypomastigotes were quantified by the method of Brener-Pizzi, 5 μL of blood were placed on a slide and covered with a coverslip 13 × 13 mm. The mobile protozoa were counted in 15 fields at 40× magnification using an optical microscope. The percentage lysis was determined by comparing the remaining trypomastigotes against the negative control. LC50 was determined with the Probit statistical tool. The results were later converted to micromolar units.

[2] = tested on: T. cruzi bloodstream trypomastigotes NINOA strain; assay: microbe, parasite or virus in culture; assay type: cell-based; conditions: Trypanosoma cruzi
Protocol: as §1, §2, §3

With `CC(C)OC(=O)c1ccc2c(c1)[n+]([O-])c(C(=O)C(C)C)c(C(F)(F)F)[n+]2[O-]` [Compound T-085, Isopropyl 2-isobutyryl-3-trifluoromethylquinoxaline-7-carboxylate 1,4-di-N-oxide] the CC50 ([1]; Trypanosoma cruzi, 24 h) was 73 µM, the killing at 50 µg/mL ([1]; Trypanosoma cruzi, 50 μg/mL, 24 h at 4 °C, infected mouse blood, read-out: % Lysis at 50 μg/mL INC-5 Strain) was 76.2 ± 1.2% and the CC50 [1] was 73.1 ± 12.4 µM. For the same molecule, the LC50 ([2]; 24 h) was 59.9 ± 7.9 µM and the killing at 50 µg/mL ([2]; 50 μg/mL, 24 h at 4 °C, infected mouse blood, read-out: % Lysis at 50 μg/mL NINOA Strain) was 74.2 ± 6.4%.
